Reference: US12191014B1, “Personal analysis and chronotherapy” (CERNER INNOVATION, INC., priority 2013, dated 2025)

Tests used:
[1] = test system: blood pressure of patients; settings: cited from earlier work; for effect on asleep versus awake SBP and DBP means: ACEI, evening or bedtime administration; for therapeutic effect on sleeping BP: ARB, bedtime in comparison with morning ingestion schedule
[2] = test system: hypertensive subjects; assay: 32-day losartan administration-time study with NIBP/SBP time series and spectral analysis; assay type: in vivo, human
Procedure: Because dipping status is determined by (a) sleep BP and (b) awake BP, it might be expected that the 2 determinants would have equal weight. […] Although there is evidence that an extreme dipping pattern may lead to nocturnal cerebral ischemia, there is also evidence that nondippers are at greater risk for cardiovascular morbidity than dippers, both for cardiovascular events and for progression of kidney disease. […] This is exactly what we have observed with losartan.
To illustrate the advantages of the present technology, a, a series of alternate schedules for administering a single, strong 100 mg oral dose of the rapidly-absorbed angiotensin receptor blocker, losartan, were explored (03:00; 09:00; 21:00; etc.). Subjects […] informed consent according to applicable U.S. law and regulations. Baseline drug-holiday NIBP measurements were collected in each subject for a period of 32 days. Subjects who had other comorbid health conditions besides hypertension were excluded, as were subjects who required two or more antihypertensive medications for blood pressure control.
Under the experimental protocol, a two-week wash-out interval was interposed between a 32-day treatment period with one administration time and the next 32-day period. Subjects were randomized as to which administration time sequence.
All of the 32-day timing regimens were monitored so as to establish administration timing compliance with a timing precision of +15 min. […]
Records were randomly selected from a patient health records data warehouse, which is derived from Cerner electronic health record (EHR) from 100% of episodes of care that are incident upon the participating health institutions. […] The SBP data is cast into the form of a time series, and analyzed the sequences using the open-source R statistical packages psd, seewave, and tuneR. […]

[3] = test system: blood pressure patient; assay: Example 1: evaluation pack trial of Losartan formulations against diagnostic targets; assay type: in vivo, human
Procedure: Example 1: A blood pressure patient is currently medicated, but appears to be medicated at an insufficient level. For example, the patient has been taking 50 mg of Losartan at various ingestion times, but has experienced some severe headaches and nose bleeds in the afternoon particularly on stressful days.
In an embodiment, the evaluation package includes four different formulations labeled A, B, 3A, and 5A arranged in separable columns of constant medication 1027, 1028, 1025, 1030, and 1010, that may be separated by manually tearing package 1000 along perforated divisions 1096, 1097, 1098, and 1099. In an embodiment, dose pack 1000 is formed by selectively applying an adhesive to a foil backing layer to adhere the foil to transparent plastic front layer 1012 containing pills such as 1013 as shown in FIG. 10. In an embodiment, a label such as “5A” is provided on the dose itself such as label 1015 on pill 1013 as viewable in dose display container 1014, and/or on the packaging in label 1011 of constant formulation dosepack represented in column 1010. Advantageously, a patient tears along a perforation 1096 while taking dose A, and only need carry a single column such as 1027 while taking an “A” formulation dose. Similarly columns 1026, 1025, 1030 and 1010 are separable by perforations 1096, 1097, 1098 and 1099. An embodiment of a constant formulation dose pack has 32 cycles of dosage. An embodiment of a constant formulation dose pack has 10 cycles of dosage.
In an embodiment, the “A” formulation corresponds to a pulsatile application of 100 mg Losartan that applies medication nominally 20 minutes after ingestion, the “3A” formulation delays application of 100 mg of Losartan to 3 hours after ingestion. The “5A” formulation delays application of 100 mg of Losartan to 5 hours after ingestion. The “B” formulation is 5 mg amlodipine besylate that applies medication approximately 5 hours after ingestion. In an embodiment the dose sequence spectrum is chosen to center the medication application around a typical peak level. For example, with blood pressure medicine application, a peak plasma level between midnight and 6 a.m. would provide dosage delays centered about 3 a.m. for a patient who is thought to be a normal dipper. An embodiment puts at least one dosage application time in a period of normal peak, for example, between midnight and 6 a.m. for blood pressure application. In an embodiment, different dose levels are provided, such as a trial with 50 mg Losartan, or 150 mg Losartan for the same application time.
Turning now to FIG. 2, there is depicted in 100 a method for a computer to execute a method of personal health evaluation. At 205, a patient manager such as 140 is configured through a clinician evaluation template to present results to the patient on patient interface 141 after the clinician has released the information to the patient for viewing, explanation. In an embodiment a template includes a monitor identifier, a patient identifier, such as social security number and/or full name and zip code, and an identification code for the dose pack such as product ID code “AB27YAM” shown in identifier 1050. In an embodiment the template includes a set of patient instructions to guide patient through the use of the monitor device. In an embodiment, the patient is instructed to wear the monitor continuously with unmonitored stretches of no greater than a half an hour. […] In an embodiment, the template includes information such as gender (male or female), weight, height, body mass index, other conditions, other mediations, patient history, patient age, a diagnostic target, a clinical input to be monitored, a period statistic to be measured, a period variability measure to be evaluated, a variation, etc. […]

CCOC(=O)[C@H](CCc1ccccc1)N[C@H]1CCc2ccccc2N(CC(=O)O)C1=O [benazepril]
effect on asleep versus awake SBP and DBP means [1]: more marked effect on the asleep than awake

C[C@H](CS)C(=O)N1CCC[C@H]1C(=O)O [captopril]
effect on asleep versus awake SBP and DBP means [1]: more marked effect on the asleep than awake

CCOC(=O)[C@H](CCc1ccccc1)N[C@@H](C)C(=O)N1CCC[C@H]1C(=O)O [enalapril]
effect on asleep versus awake SBP and DBP means [1]: more marked effect on the asleep than awake

CCCCC1=NC2(CCCC2)C(=O)N1Cc1ccc(-c2ccccc2-c2nnn[nH]2)cc1 [irbesartan]
therapeutic effect on sleeping BP [1]: greater therapeutic effect on sleeping BP

NCCCC[C@H](N[C@@H](CCc1ccccc1)C(=O)O)C(=O)N1CCC[C@H]1C(=O)O [lisinopril]
effect on asleep versus awake SBP and DBP means [1]: more marked effect on the asleep than awake

CCCCc1nc(Cl)c(CO)n1Cc1ccc(-c2ccccc2-c2nn[nH]n2)cc1 [losartan]
reduction in average blood pressure ([2]; 100 mg oral dose, all dosing schedules (03:00; 09:00; 21:00), 32-day treatment periods): reduction in average blood pressure
phase-slips between circadian BP and drug administration ([2]; 100 mg, 21:00 administration time): occasionally detected
normalization of dipping pattern ([2]; administration such that peak plasma levels occur prior to midnight or prior to 06:00): can normalize extreme dippers, non-dippers, and risers and convert them to normal dippers
dipping pattern ([3]; 100 mg at 21:00): achieved a normal dipping pattern
entropy relative to untreated regimen ([3]; 100 mg at 21:00): greatly improved entropy
entropy versus target ([3]; 100 mg at 21:00): acceptable entropy
max SBP versus target ([3]; 100 mg at 21:00): unacceptable max SBP
range of SBP versus target ([3]; 100 mg at 21:00): unacceptable range
rolloff ([3]; 100 mg at 21:00): acceptable rolloff improvement
significance versus target ([3]; 100 mg at 21:00): acceptable significance
stability of rhythm ([3]; 100 mg at 21:00): improved stability of rhythm
desired targets met ([3]; 100 mg at 21:00, compared with untreated regimen): 5 of 7
therapeutic effect on sleeping BP [1]: greater therapeutic effect on sleeping BP

CCC[C@H](N[C@@H](C)C(=O)N1[C@H](C(=O)O)C[C@@H]2CCCC[C@@H]21)C(=O)OCC [perindopril]
effect on asleep versus awake SBP and DBP means [1]: more marked effect on the asleep than awake

CCOC(=O)[C@H](CCc1ccccc1)N[C@@H](C)C(=O)N1Cc2ccccc2C[C@H]1C(=O)O [quinapril]
effect on asleep versus awake SBP and DBP means [1]: more marked effect on the asleep than awake

CCOC(=O)[C@H](CCc1ccccc1)N[C@@H](C)C(=O)N1[C@H](C(=O)O)C[C@@H]2CCC[C@@H]21 [ramipril]
effect on asleep versus awake SBP and DBP means [1]: more marked effect on the asleep than awake

CCOC(=O)[C@H](CCc1ccccc1)N[C@@H](C)C(=O)N1CC2(C[C@H]1C(=O)O)SCCS2 [spirapril]
effect on asleep versus awake SBP and DBP means [1]: more marked effect on the asleep than awake

CCCc1nc2c(C)cc(-c3nc4ccccc4n3C)cc2n1Cc1ccc(-c2ccccc2C(=O)O)cc1 [telmisartan]
therapeutic effect on sleeping BP [1]: greater therapeutic effect on sleeping BP

CCOC(=O)[C@H](CCc1ccccc1)N[C@@H](C)C(=O)N1[C@H](C(=O)O)C[C@H]2CCCC[C@@H]21 [trandolapril]
effect on asleep versus awake SBP and DBP means [1]: more marked effect on the asleep than awake

CCCCC(=O)N(Cc1ccc(-c2ccccc2-c2nnn[nH]2)cc1)[C@H](C(=O)O)C(C)C [valsartan]
therapeutic effect on sleeping BP [1]: greater therapeutic effect on sleeping BP

C[C@H](CSC(=O)c1ccccc1)C(=O)N1C[C@@H](Sc2ccccc2)C[C@H]1C(=O)O [zofenopril]
effect on asleep versus awake SBP and DBP means [1]: more marked effect on the asleep than awake
